How the values were obtained:
[1] = tested on: rat mesenchymal stem cells; assay: Assay 2: adipogenesis, Oil Red O staining (differentiation of pre-adipocytes into adipocytes); type: cell-based; conditions: for adipogenic activity in Assay 2: Assay 2, Oil Red O, concentration not given; for adipogenesis quantified by Oil Red O staining, fold change relative to the negative control: three weeks
Experimental: Reagents: The Dexamethasone, IBMX, Insulin, and Oil Red O Solutions were the same as described above for assay 1. Indomethacin Solution contained 10 mM indomethacin in methanol.
Adipogenesis Maintenance Media was prepared as described above.
Adipogenesis Induction Media: To prepare 501.5 mL of Adipogenesis Induction Media, 50 μL of the 10 mM stock Dexamethasone Solution, 500 μL of the 0.5 M IBMX stock solution, 500 μL of the 10 mg/ml stock Insulin Solution, 5 ml of a 10 mM stock Indomethacin Solution, and 5 mL of a 100× stock solution of penicillin and streptomycin were added to 490 mL of mesenchymal stem cell expansion media.
Pre-adipocyte stem cells, bone marrow mesenchymal stem cells or fibroblasts such as dermal reticular and papillary fibroblasts were propagated using standard tissue culture methods. Cells were trypsinized to remove cells from the substratum, the trypsin was neutralized, and cells were counted using a hemocytometer. Cells were resuspended at 20,000 cells/ml in DMEM containing 10% calf serum. 1 mL of cell suspension per well was plated in a 48-well plate, with several wells left empty for blank well (blank control) staining.
Cells were incubated for 2 days overnight and had reached confluency at this point. Media was removed from each well and replaced with 0.5 ml Adipogenesis Induction Media. For negative control (no insulin, no peptide) wells, expansion medium only was used at this step and for subsequent media changes. For all media changes, media was replaced as gently as possible to avoid disturbing the monolayer.
Cells were incubated for 72 hours at 37° C., 5% CO2. Media was removed and replaced with 0.5 ml of Adipogenesis Maintenance Media containing either RHAMM antagonist peptides (experimental group) or insulin (concentration as in the Adipogenesis Induction Media and used as a positive control). Cells were incubated for at least 96 hours in this media at 37° C., 5% CO2. Media was replaced every 48 hours and experiments were terminated between seven and fourteen days after addition of insulin or peptides.
Media was removed and Oil Red O staining was performed as described above for assay 1.
Assay 1 is an assay that promotes transdifferentiation of fibroblasts into adipocytes, whereas Assay 2 promotes differentiation of multi-potential mesenchymal progenitor cells into adipocytes. Immortalized rat bone marrow mesenchymal stem cells were used for both assays. These cells contain cells of different lineages, including fibroblasts, pre-adipocytes, pre-chondrocytes and pre-osteoblasts. Thus, Assay 1 was used to promote transdifferentiation of fibroblast lineages into adipocytes and Assay 2 was used to promote differentiation of the pre-adipocytes into adipocytes.
As described in Example 1 above, the priming stimulus for Assay 1 includes IBMX (3-isobutyl-1-methylxanthine) and dexamethasone, and then insulin as the final adipogenic stimulus. The priming stimulus for assay 2 includes IBMX, dexamethasone and indomethacin, and then insulin as the final adipogenic stimulus.
Adipogenesis was quantified by Oil Red O staining. The peptide was tested at concentrations of 5 and 50 μg/ml over a period of three weeks. Cells were plated in 48-well culture plates, and the purity of the peptides was >95%. All data are presented as the fold change relative to the negative control (Ctr(−))±standard error. The KSEVSK 6-mer (SEQ ID NO: 7) was used as a positive control.

[2] = tested on: mammary fat pads of aged female rats; assay: In vivo adipogenesis in mammary fat pads of aged female rats (microCT); set-up: species or system rat; conditions: eight-month-old female rats, 100 μg peptide in 100 μl collagen gel, 7 days, versus collagen only
Experimental: Peptides were also tested for their ability to stimulate adipogenesis in mammary fat pads of aged (8 month old) female rats in vivo. Mammary fat pads are rich in adipocyte progenitor cells.
Eight-month-old female Sprague Dawley rats (retired breeders) were injected with 100 μl collagen gel (Vitrogen) containing 100 μg peptide into the fourth right mammary fat pad, as depicted in FIG. 10. […] The collagen and peptides were injected at the top of the ROI nearest the nipple. The collagen and peptide diffuse into the fat pad following injection and active peptides target RHAMM-positive progenitor cells present in the fat pad. Collagen alone was injected into the fourth left mammary fat pad as a negative control.
Following injection of the collagen and peptide or collagen alone, animals were maintained on rat chow and water for 7 days and then euthanized. Micro-computed tomography (microCT) imaging of the […] was performed on animals using a Locus Ultra scanner (GE Healthcare, London, ON, Canada). The animals were imaged ex vivo with an X-ray tube voltage of 80 kV and a tube current of 55 mA. Nine hundred projections of data were acquired at an angular increment of 0.4 degrees around the rat in an exposure time of 16 ms. The data were then reconstructed into a 3D volume image with a voxel size of 154 μm. The subcutaneous mammary fat measured in 10×5×3 mm rectangular area (the region of interest (ROI)) below the nipple, avoiding measurement of underlying visceral fat (see the region labeled “fat pad” in FIG. 11). The amount of fat in the ROI was calculated as mass (mg) per ROI.

3T3L cells = assay: Adiponectin ELISA on supernatant medium of primed 3T3L cells; type: cell-based, mouse; conditions: 10 μg/ml peptide, versus no insulin control
Experimental: 3T3L cells were cultured in T75 culture flasks, in expansion medium (Millipore Corporation), and stored in a 5% CO2 humidified incubator at 37° C. Media was changed every two days until the cells reached 80% confluency. Cells were subcultured in a 96 well plate with a seeding density of 3×10^4 cells per cm^2.
Once cells had just reached confluency, expansion media was replaced with 0.5 mL of Adipogenic Induction Media per well containing 5% serum that had been screened for an ability to maintain stem cells in an undifferentiated state (LifeTechnologies). Cells were incubated for 48 hours at 37° C., 5% CO2. The Adipogenic Induction Media contained DMEM (low glucose, Gibco) +5% serum (LifeSciences) with 0.5 mM IBMX solution, 1 μM Dexamethasone Solution, and 100 μM Indomethacin Solution (priming stimulus). After 48 hr the Adipogenic Induction media was replaced with new media containing 10 μg/ml insulin alone (positive control), or 10 μg/ml peptide (experimental conditions). Negative controls were DMEM +5% serum only. Plates were incubated for two days prior to adiponectin ELISA analyses. Peptides were added daily at 10 μg/ml throughout the remainder of the experiment.
Adiponectin present in the supernatant medium was measured using a mouse adiponectin ELISA (Novex, LifeTechnologies). Briefly, supernatant medium was collected and diluted 1:100. One hundred microliters of the diluted supernatant medium was added to each well of the ELISA plate and incubated for one hour at 37° C. Wells were washed three times with 1× wash buffer and then 100 μl of antibody was added to each well and incubated for one hour at 37° C. The wells were then washed and incubated with 100 μl detector antibody for 1 hr at 37° C. The wells were washed five times with wash buffer and 100 μl of substrate solution was added to each well and incubated for twenty minutes in the dark. The reaction was then stopped by the addition of 100 μl stop solution. Plates were read at 450 nm and concentrations of adiponectin were derived from a standard curve included in the ELISA plate.
Insulin and the KSEVSK peptide (SEQ ID NO: 7) served as positive controls. […] In FIG. 7, values marked by asterisks represent significant changes relative to the no insulin control (i.e., the negative control) using a two-tailed Student's T test, p<0.05.

Row | Substance | adipogenic activity in Assay 2 [1] | adipogenesis quantified by Oil Red O staining, fold change relative to the negative control ([1]; Assay 2, peptide 5 μg/ml) | adipogenesis quantified by Oil Red O staining, fold change relative to the negative control ([1]; Assay 2, peptide 50 μg/ml) | adipogenesis in vivo in mammary fat pads [2] | adipogenic activity in the adiponectin assay (adiponectin secretion) (3T3L cells) | specific activity among the 9-mer, 7-mer and 6-mer fragments ([1]; Assay 2) | adipogenesis in vivo in mammary fat pads ([2]; listed as KTRASHHV) | adipogenic activity in the adiponectin assay (adiponectin secretion) (3T3L cells; listed as KTRASHHV)
1 | KLKDENSQLK (listed as Homo sapiens) | exhibited activity | significant increase in adipogenesis | significant increase in adipogenesis | exhibited activity | exhibited activity |  |  | 
2 | KLKDENSQLR (listed as Erinaceus europaeus) | promising results |  |  | not subsequently shown to be adipogenic | not subsequently shown to be adipogenic |  |  | 
3 | KSEVSK (listed as Homo sapiens) [reference compound] | exhibit adipogenic activity |  |  | mammary fat pad enlargement |  | highest specific activity |  | 
4 | KTRAHHV (listed as Paenibacillus polymyxa) | ablated adipogenic activity |  |  | induce adipogenesis in vivo | lack an ability to promote adipogenesis |  | able to induce adipogenesis in vivo | did not exhibit adipogenic activity
